For this assay, the target named is T1, human NET (Homo sapiens, UniProt P23975).
T1 construct: expressed in transfected cells
Kind of assay: Monoamine transporter reuptake inhibition, [3H]-MPP+ uptake (NET). It is filed as cell-based. The following applies: HEK 293 stably expressing human NET; 0.02 μM [3H]-MPP+, 3 min; means of at least three independent experiments; NS = Not specific in the used concentration range; read-out: NET IC50 ± SD.

Experimental findings from US12612374B2, “Thiazole and diphenyl substituted sulfoxides for use in improving cognition functions and against addictions to substances” (Cogmotiv FlexCo, priority 2019, dated 2026) are described below.

Molecules are shown by their SMILES.

T1 sequence (P23975 whole entry): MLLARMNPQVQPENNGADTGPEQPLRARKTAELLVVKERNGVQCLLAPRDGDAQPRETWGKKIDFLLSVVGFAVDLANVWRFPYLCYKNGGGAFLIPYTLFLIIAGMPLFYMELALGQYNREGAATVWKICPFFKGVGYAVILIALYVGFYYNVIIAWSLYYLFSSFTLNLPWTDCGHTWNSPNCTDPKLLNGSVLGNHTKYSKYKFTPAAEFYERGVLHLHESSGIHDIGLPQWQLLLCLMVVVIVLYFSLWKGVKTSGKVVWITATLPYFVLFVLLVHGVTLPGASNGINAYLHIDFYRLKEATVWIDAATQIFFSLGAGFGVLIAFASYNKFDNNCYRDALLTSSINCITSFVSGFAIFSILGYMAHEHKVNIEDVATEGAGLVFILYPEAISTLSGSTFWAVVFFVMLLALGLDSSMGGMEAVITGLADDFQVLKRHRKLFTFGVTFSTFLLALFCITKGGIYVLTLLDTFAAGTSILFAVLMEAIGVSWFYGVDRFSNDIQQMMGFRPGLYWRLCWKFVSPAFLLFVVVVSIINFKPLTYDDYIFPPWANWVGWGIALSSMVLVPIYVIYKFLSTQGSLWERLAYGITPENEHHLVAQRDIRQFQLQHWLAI

A word on the IC50: it is the concentration that gives 50% inhibition. For `[O-][S+](Cc1cncs1)C(c1ccccc1)c1cccc(Br)c1` (mixture of isomers) [(R), 5-((((3-bromophenyl)(phenyl)methyl)sulfinyl)methyl)thiazole], the IC50 was 17.2 ± 4.5 µM.

Take `[O-][S@@+](Cc1cncs1)[C@@H](c1ccccc1)c1cccc(Br)c1` (single isomer, unassigned) [Compound 1_1]: the IC50 came to 11.7 ± 7.3 µM.

Consider `[O-][S@+](Cc1cncs1)[C@@H](c1ccccc1)c1cccc(Br)c1` [Compound 1_2], for which the IC50 is 148 ± 68.4 µM.

As for `[O-][S@+](Cc1cncs1)[C@H](c1ccccc1)c1cccc(Br)c1` [Compound 2_2], the IC50 came to 13.9 ± 15.9 µM.
